# Measurements published in patent US7645738B2, “18-membered nitrobenzyl- and aminobenzyl-substituted cyclohexadepsipeptides for controlling endoparasites and a process for their preparation” (Bayer Animal Health GmbH, priority 2003, dated 2010).
# Experiments:
# Haemonchus contortus = assay: In vivo nematode test Haemonchus contortus/sheep; details: sheep experimentally infected with Haemonchus contortus; applied orally and/or intravenously as pure active compound; complete cessation of egg excretion after treatment
# Method: Haemonchus contortus/sheep
# Sheep which had been experimentally infected with Haemonchus contortus were treated after the prepotency time of the parasite had elapsed. The active compounds were applied orally and/or intravenously as pure active compound.
# (§1) The degree of effectiveness is determined by quantitatively counting the worm eggs which have been excreted with the faeces before and after the treatment.
# (§2) A complete cessation of egg excretion after the treatment means that the worms have been aborted or damaged to such an extent that they no longer produce eggs (dosis effectiva).
# (§3) Active compounds tested and effective dosage rates (dosis effectiva) can be seen from the table which follows.
# log P value from HPLC = assay type: physicochemical; details: 0.1% phosphoric acid/acetonitrile gradient
# Method: HPLC (0.1% phosphoric acid/acetonitrile; gradient: 90/10 (1) 5%/min, 5/95 (6); flow rate: 1.5 mil/min; UV: 210 nm): Rt=12.57 min; log P value 3.58.
# [1] = test system: Trichostrongylus colubriformis; assay: In vivo nematode test Trichostrongylus colubriformis/sheep; details: sheep experimentally infected with Trichostrongylus colubriformis; applied orally and/or intravenously as pure active compound; complete cessation of egg excretion after treatment
# Method: Trichostrongylus colubriformis/sheep
# Sheep which had been experimentally infected with Trichostrongylus colubriformis were treated after the prepotency time of the parasite had elapsed. The active compounds were applied orally and/or intravenously as pure active compound.
# as §1, §2, §3
melting point [°C],SMILES,Effective dosage (dosis effectiva) (Haemonchus contortus) [mg/kg],chromatographic logP (log P value from HPLC),Effective dosage (dosis effectiva) [1] [mg/kg]
–,"CCC(C)C1C(=O)OC(Cc2ccccc2N)C(=O)N(C)C(C(C)CC)C(=O)OC(C)C(=O)N(C)C(C)C(=O)OC(C)C(=O)N1C [Example IV-1, Cyclo(-N-methyl-L-alanyl-D-lactyl-N-methyl-L-isoleucyl-D-2-amino-phenyllactyl-N-methyl-L-isoleucyl-D-lactyl-)]",0.05,–,–
–,"CCC(C)[C@H]1C(=O)O[C@H](Cc2ccc(NCCS(=O)(=O)CCO)cc2)C(=O)N(C)[C@@H](C(C)CC)C(=O)O[C@H](C)C(=O)N(C)[C@@H](C)C(=O)O[C@H](C)C(=O)N1C (stereo partly drawn) [Example I-2, Cyclo(-N-methyl-L-alanyl-D-lactyl-N-methyl-L-isoleucyl-D-4-(2-hydroxyethyl-sulphonyl-ethylamino-phenyl)lactyl-N-methyl-L-isoleucyl-D-lactyl-)]",0.10,–,–
122 to 126,"CCC(C)[C@H]1C(=O)O[C@H](Cc2ccc([N+](=O)[O-])cc2)C(=O)N(C)[C@@H](C(C)CC)C(=O)O[C@H](C)C(=O)N(C)[C@@H](C)C(=O)O[C@H](C)C(=O)N1C (stereo partly drawn) [Example III-1, Cyclo(-N-methyl-L-alanyl-D-lactyl-N-methyl-L-isoleucyl-D-4-nitro-phenyllactyl-N-methyl-L-isoleucyl-D-lactyl-)]",–,–,–
–,"CCC(C)[C@H]1C(=O)O[C@H](Cc2ccccc2)C(=O)N(C)[C@@H](C(C)CC)C(=O)O[C@H](C)C(=O)N(C)[C@@H](C)C(=O)O[C@H](C)C(=O)N1C (stereo partly drawn) [Example II-1, Cyclo(-N-methyl-L-alanyl-D-lactyl-N-methyl-L-isoleucyl-D-phenyllactyl-N-methyl-L-isoleucyl-D-lactyl-)]",–,4.23,–
–,"CC[C@H](C)[C@H]1C(=O)O[C@H](Cc2cccc(N)c2)C(=O)N(C)[C@@H]([C@@H](C)CC)C(=O)O[C@H](C)C(=O)N(C)[C@@H](C)C(=O)O[C@H](C)C(=O)N1C [Example IV-2, Cyclo(-N-methyl-L-alanyl-D-lactyl-N-methyl-L-isoleucyl-D-3-amino-phenyllactyl-N-methyl-L-isoleucyl-D-lactyl-)]",0.05,–,0.25
–,"CCC(C)[C@H]1C(=O)O[C@H](Cc2ccc(N3CCOCC3)cc2)C(=O)N(C)[C@@H](C(C)CC)C(=O)O[C@H](C)C(=O)N(C)[C@@H](C)C(=O)O[C@H](C)C(=O)N1C (stereo partly drawn) [Example I-1, Cyclo(-N-methyl-L-alanyl-D-lactyl-N-methyl-L-isoleucyl-D-4-morpholino-phenyllactyl-N-methyl-L-isoleucyl-D-lactyl-)]",0.10,3.58,0.25
